According to US20210277003A1, “OGA INHIBITOR COMPOUNDS” (Janssen Pharmaceutica NV, priority 2018, published 2021):

Assays:
[1] = biological target: T1, recombinant human Meningioma Expressed Antigen 5 (MGEA5), also referred to as O-GlcNAcase (OGA) (Homo sapiens, UniProt O60502); test: OGA biochemical assay: inhibition of hydrolysis of fluorescein mono-ß-D-N-Acetyl-Glucosamine (FM-GlcNAc), fluorescence readout; settings: FM-GlcNAc substrate; for Emax: read-out: Enzymatic Emax (%); for IC50: read-out: Enzymatic hOGA, pIC50 (converted)
T1 construct: Full length OGA enzyme was purchased at OnGene (cat #TP322411); purchased OnGene (so in the source)
T1 sequence (O60502 1-916): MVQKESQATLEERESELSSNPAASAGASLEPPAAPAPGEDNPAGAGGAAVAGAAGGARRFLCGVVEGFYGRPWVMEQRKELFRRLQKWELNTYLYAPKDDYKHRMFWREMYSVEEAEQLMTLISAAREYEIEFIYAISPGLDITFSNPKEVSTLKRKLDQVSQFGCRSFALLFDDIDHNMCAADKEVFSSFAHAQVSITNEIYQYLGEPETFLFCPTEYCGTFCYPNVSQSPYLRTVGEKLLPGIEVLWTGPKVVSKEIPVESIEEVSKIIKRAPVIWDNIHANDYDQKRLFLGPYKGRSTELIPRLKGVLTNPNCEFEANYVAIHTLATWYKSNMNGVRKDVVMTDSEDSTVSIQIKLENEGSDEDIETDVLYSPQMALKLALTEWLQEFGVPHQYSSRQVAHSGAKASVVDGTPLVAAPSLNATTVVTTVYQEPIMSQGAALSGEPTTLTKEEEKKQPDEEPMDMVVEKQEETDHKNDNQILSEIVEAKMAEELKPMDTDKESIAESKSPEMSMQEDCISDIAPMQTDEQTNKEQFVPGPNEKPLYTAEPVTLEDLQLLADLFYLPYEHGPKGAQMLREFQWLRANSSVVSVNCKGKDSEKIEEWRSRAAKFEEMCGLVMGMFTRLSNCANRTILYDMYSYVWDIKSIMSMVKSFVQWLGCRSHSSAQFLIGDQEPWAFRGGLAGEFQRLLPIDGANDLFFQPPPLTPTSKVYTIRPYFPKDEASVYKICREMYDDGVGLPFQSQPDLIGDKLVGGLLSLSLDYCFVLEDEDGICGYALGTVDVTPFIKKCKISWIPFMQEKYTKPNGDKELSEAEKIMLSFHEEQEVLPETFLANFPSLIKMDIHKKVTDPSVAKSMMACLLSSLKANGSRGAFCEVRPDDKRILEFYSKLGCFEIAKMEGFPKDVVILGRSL
Method in brief: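 Full-length recombinant human OGA (2 nM) was pre-incubated with compound for 60 min, then reacted with 100 uM FM-GlcNAc for 6 h at room temperature in 200 mM citrate/phosphate pH 7.2 with 0.005% Tween-20. Reactions were stopped with pH 11.0 carbonate and fluorescein read at 485/538 nm. IC50 and Hill coefficient came from curve fitting.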

[2] = system: OGA in HEK293 cells inducible for P301L mutant human Tau (isoform 2N4R); test: OGA cellular assay: immunocytochemical detection of O-GlcNAcylated proteins (CTD110.6 antibody); assay type: cell-based; settings: 6 hours incubation; for Emax / EC50: Homo sapiens, HEK293, 6 h; for Emax: maximum = Thiamet G 200 uM; for EC50: read-out: Cellular hOGA, pEC50 (converted)
Method in brief: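 Cells seeded 2 days ahead in low-glucose assay medium and exposed to compounds for 6 h at 0.2% DMSO, then PFA-fixed and immunostained. Signal is 488 nm intensity from imaging (9 fields/well), with Hoechst nuclei counts as a toxicity check. IC50 from non-linear regression, with 200 uM Thiamet G per plate as maximum inhibition.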

SMILES | Emax [1] [%] | IC50 [1] [nM] | Cellular hOGA; pEC50 [2] | Emax [2] [%] | EC50 [2] [nM] | Enzymatic hOGA; pIC50 [1]
Cc1ccnc(C)c1Nc1nccc2c1ccn2CC1CCO1 (single isomer, unassigned) [Compound 25a] | 102 | 5.89 | 7.3 | 92 | – | –
Cc1cc(F)cc(F)c1Nc1nccc2c1ccn2CC(F)(F)C(C)C [Compound 186] | 102 | 4.27 | – | 85.9 | 24.5 | –
CCCCn1ccc2c(Nc3c(C)cc4c(ncn4C)c3C)nccc21 [Compound 77] | 99 | 4.79 | – | 83 | 7.41 | –
CC(C)CCn1ccc2c(Nc3c(Cl)cccc3Cl)nccc21 [Compound 60] | 102 | 3.63 | – | 86 | 55 | –
FC(F)CCn1ccc2c(Nc3c(Cl)cccc3Cl)nccc21 [Compound 97] | 101 | – | – | 78 | 347 | 7.9
Cc1cc(OC(F)F)nc(C)c1Nc1nccc2c1ccn2CC1CC(F)(F)C1 [Compound 146] | 101 | – | – | 76.3 | 45.7 | 7.56
CCCCn1ccc2c(Nc3c(C)cc4c(c3C)C(=O)N(C)C4)nccc21 [Compound 45] | 103 | 10.5 | – | 87 | 16.6 | –
CCC(C)Cn1ccc2c(Nc3c(Cl)cccc3Cl)nccc21.Cl (centres unmarked) [Compound 9] | 105 | – | – | 85 | 30.2 | 8.42
CCCCn1ccc2c(Nc3c(Cl)ccc4c3ccn4C)nccc21 [Compound 14] | 103 | – | – | 80 | 182 | 8.54
CCCCn1ccc2c(Nc3c(C)cnnc3C(C)C)nccc21 [Compound 19] | 102 | – | – | 94 | 83.2 | 7.8
Cc1ccnc(C)c1Nc1nccc2c1ccn2CCC(C)(C)C#N [Compound 26] | 100 | 191 | – | 64 | 479 | –
CCCCn1ccc2c(Nc3c(F)cncc3C3CC3)nccc21 [Compound 43] | 99 | 24 | – | 50 | 676 | –
Cc1cnc(-n2ccc3c(Nc4c(Cl)cc(F)cc4Cl)nccc32)o1 [Compound 183] | 95.3 | 501 | – | 13.9 | > 1000 | –
Cc1cc(-c2cnn(C)c2)cc(C)c1Nc1nccc2c1ccn2CC(C)(F)F [Compound 154] | 101 | – | – | 86.2 | 3.47 | 8.67
CCCCn1ccc2c(Nc3c(C)cc(C)c(Br)c3C)nccc21 [Compound 66] | 103 | 3.8 | – | 84 | 186 | –
CCC(F)(F)Cn1ccc2c(Nc3c(Cl)cccc3Cl)nccc21 [Compound 113] | 106 | – | – | 93 | 7.94 | 8.9
CC[C@@H](O)Cn1ccc2c(Nc3c(C)cc(C(F)(F)F)cc3C)nccc21 [Compound 124a] | 103 | – | – | 74.7 | 21.9 | 7.88
